Laboratory results taken from US11613531B2, “Inhibitors of RHO associated coiled-coil containing protein kinase” (Kadmon Corporation, LLC, priority 2017, dated 2023).
Where two headings read alike, the source gives them in different places.

Key:
[1] = tested on: ppMlc (T18/S19) levels in A7R5 cells; assay: A7R5 in-cell ELISA (pMLC); assay type: cell-based, Rat; conditions: Rattus norvegicus, A7R5, A7R5 cells; for inhibition at 10 µM: 10 μM compound; for inhibition at 10 µM / inhibition at 1 µM: read-out: pMLC % inh A7R5 @ [conc]; for inhibition at 1 µM: 1 μM compound; for IC50: ppMlc (T18/S19)
Procedure, shortened: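 A7R5 rat aortic smooth muscle cells seeded 24 h, then treated 90 min with a 9-point 2-fold compound dilution series. Fixed cells probed for ppMlc (T18/S19) by colorimetric in-cell ELISA; cellular IC50 from nonlinear regression curve fit.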

[2] = biological target: Recombinant ROCK2 (amino acids 1-552) (Homo sapiens (Human), UniProt O75116); assay: Z′-Lyte kinase assay, ROCK2; assay type: biochemical; conditions: for inhibition at 1 µM: 1 μM compound, read-out: ROCK2 % inh. @ [conc]
Chain of Recombinant ROCK2 (amino acids 1-552) (O75116 1-552): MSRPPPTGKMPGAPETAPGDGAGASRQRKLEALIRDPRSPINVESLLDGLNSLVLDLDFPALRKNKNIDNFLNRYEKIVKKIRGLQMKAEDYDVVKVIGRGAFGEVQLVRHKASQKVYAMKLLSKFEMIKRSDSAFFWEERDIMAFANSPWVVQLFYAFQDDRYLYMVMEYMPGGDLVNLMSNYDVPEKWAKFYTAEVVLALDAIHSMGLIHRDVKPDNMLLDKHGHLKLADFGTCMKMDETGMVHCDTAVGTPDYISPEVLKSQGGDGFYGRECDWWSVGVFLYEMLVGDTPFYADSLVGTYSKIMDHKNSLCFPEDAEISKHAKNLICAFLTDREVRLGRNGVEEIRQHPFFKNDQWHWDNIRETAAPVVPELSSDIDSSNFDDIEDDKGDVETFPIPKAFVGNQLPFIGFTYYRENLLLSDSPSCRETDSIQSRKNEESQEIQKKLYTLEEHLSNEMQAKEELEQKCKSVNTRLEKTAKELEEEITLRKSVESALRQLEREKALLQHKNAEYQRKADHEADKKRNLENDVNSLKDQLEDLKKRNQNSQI
Procedure, shortened: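 Recombinant human ROCK1 (aa 1-535) or ROCK2 (aa 1-552) activity read by Z′-Lyte kinase assay. Percent inhibition at 1 μM compound was normalized to DMSO control; IC50 from 9-point 2-fold serial dilutions by nonlinear regression.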

[3] = 9 points 2-fold serial dilution

Row | inhibition at 1 µM [2] [%] | SMILES | inhibition at 10 µM [1] [%] | inhibition at 1 µM [1] [%] | further results
1 | 87.4 | CC1CN(c2ncc(F)c(Nc3ccc4[nH]ncc4c3)n2)CCCN1 (centres unmarked) [Example 151, N-(5-fluoro-2-(3-methyl-1,4-diazepan-1-yl)pyrimidin-4-yl)-1H-indazol-5-amine] | 55.1 | – | IC50 [2, 3]: 80 nM
2 | 29.5 | CCC1CCN(c2nc(C)c(C)c(Nc3ccc4[nH]ncc4c3)n2)CCN1 (centres unmarked) [Example 23, N-(2-(5-ethyl-1,4-diazepan-1-yl)-5,6-dimethylpyrimidin-4-yl)-1H-indazol-5-amine] | 46.4 | – | –
3 | 77.6 | CC1CNCCN1c1ncc(Cl)c(Nc2ccc3[nH]ncc3c2)n1 (centres unmarked) [Example 179, N-(5-chloro-2-(2-methylpiperazin-1-yl)pyrimidin-4-yl)-1H-indazol-5-amine] | 67.4 | – | IC50 [1]: 1540 nM
4 | 88.2 | Fc1cnc(N2CC3CNCC(C3)C2)nc1Nc1ccc2[nH]ncc2c1 [Example 167, N-(2-(3,7-diazabicyclo[3.3.1]nonan-3-yl)-5-fluoropyrimidin-4-yl)-1H-indazol-5-amine] | – | 22.5 | –
5 | 53.9 | CCC1CNCCCN1c1ncc(C)c(Nc2ccc3[nH]ncc3c2)n1 (centres unmarked) [Example 105, N-(2-(2-ethyl-1,4-diazepan-1-yl)-5-methylpyrimidin-4-yl)-1H-indazol-5-amine] | – | 15.1 | –
6 | 22.2 | c1cc(Nc2ccc3[nH]ncc3c2)nc(N2CCN3CCNCC3C2)n1 (centres unmarked) [Example 84, N-(2-(octahydro-2H-pyrazino[1,2-a]pyrazin-2-yl)pyrimidin-4-yl)-1H-indazol-5-amine] | – | 0.7 | –
7 | 84.4 | CC1CNCCN(c2ncc(Cl)c(Nc3ccc4[nH]ncc4c3)n2)C1 (centres unmarked) [Example 193, N-(5-chloro-2-(6-methyl-1,4-diazepan-1-yl)pyrimidin-4-yl)-1H-indazol-5-amine] | – | 32.5 | IC50 [1]: 788 nM; IC50 [2, 3]: 282 nM
8 | 31.8 | Cc1cc(Nc2ccc3[nH]ncc3c2)nc(N2CCNC(C(C)C)CC2)n1 (centres unmarked) [Example 111, N-(2-(5-isopropyl-1,4-diazepan-1-yl)-6-methylpyrimidin-4-yl)-1H-indazol-5-amine] | 44 | – | –
9 | 94.4 | CCC1CNCCN1c1nccc(Nc2ccc3[nH]ncc3c2)n1 (centres unmarked) [Example 235, N-(2-(2-ethylpiperazin-1-yl)pyrimidin-4-yl)-1H-indazol-5-amine] | – | – | IC50 [1]: 510 nM; IC50 [2, 3]: 54 nM
10 | 72.7 | c1cc(Nc2ccc(-c3cn[nH]c3)cc2)nc(N2CCCNCC2)n1 [Example 44, N-(4-(1H-pyrazol-4-yl)phenyl)-2-(1,4-diazepan-1-yl)pyrimidin-4-amine] | – | 13.2 | IC50 [2]: 220 nM
11 | – | Cc1cc(Nc2ccc3[nH]ncc3c2)nc(N2CC3CNC3C2)n1 (centres unmarked) [Example 134, N-(2-(3,6-diazabicyclo[3.2.0]heptan-3-yl)-6-methylpyrimidin-4-yl)-1H-indazol-5-amine] | – | 29.9 | IC50 [2]: 11 nM
12 | – | COc1ccc(N[C@@H]2CCN(c3nccc(Nc4ccc5[nH]ncc5c4)n3)C2)cc1 [Example 246, (R)—N-(2-(3-((4-methoxyphenyl)amino)pyrrolidin-1-yl)pyrimidin-4-yl)-1H-indazol-5-amine] | 1.8 | – | ROCK2 % inh. @ [conc] ([2]; concentration not given): 0%
13 | 64.2 | Cc1cc(Nc2ccc3[nH]ncc3c2)nc(N2CCNC(C(C)C)C2)n1 (centres unmarked) [Example 115, N-(2-(3-isopropylpiperazin-1-yl)-6-methylpyrimidin-4-yl)-1H-indazol-5-amine] | 48.2 | – | –
14 | – | c1cc(Nc2ccc(-c3nnc[nH]3)cc2)nc(N2CCNCC2)n1 [Example 354, N-(4-(4H-1,2,4-triazol-3-yl)phenyl)-2-(piperazin-1-yl)pyrimidin-4-amine] | 6.4 | – | IC50 [2]: > 10000 nM
15 | 13.8 | c1ccc2c(c1)C(C1CCNCC1)CN2c1nccc(Nc2ccc3[nH]ncc3c2)n1 (centres unmarked) [Example 88, N-(2-(3-(piperidin-4-yl)indolin-1-yl)pyrimidin-4-yl)-1H-indazol-5-amine] | – | 5.6 | –
16 | 58.1 | Cc1nc(N2CCNC(C)C2)nc(Nc2ccc3[nH]ncc3c2)c1C (centres unmarked) [Example 13, N-(5,6-dimethyl-2-(3-methylpiperazin-1-yl)pyrimidin-4-yl)-1H-indazol-5-amine] | 51.1 | – | IC50 [1]: 1490 nM
17 | – | CC1CN(c2nccc(Nc3ccc4[nH]ncc4c3)n2)C(C)CN1 (centres unmarked) [Example 68, N-(2-(2,5-dimethylpiperazin-1-yl)pyrimidin-4-yl)-1H-indazol-5-amine] | – | 35.4 | IC50 [1]: 1010 nM; IC50 [2, 3]: 294 nM
18 | – | Clc1cnc(N2CC3CC(C2)N3)nc1Nc1ccc2[nH]ncc2c1 [Example 280, N-(2-(3,6-diazabicyclo[3.1.1]heptan-3-yl)-5-chloropyrimidin-4-yl)-1H-indazol-5-amine] | – | 26.6 | IC50 [2]: 263 nM
19 | 84.5 | CC1CCNCCN1c1nccc(Nc2ccc3[nH]ncc3c2)n1 (centres unmarked) [Example 240, N-(2-(7-methyl-1,4-diazepan-1-yl)pyrimidin-4-yl)-1H-indazol-5-amine] | 78.1 | – | IC50 [1]: 1110 nM
20 | 9.5 | Fc1cnc(N2CC(C3CCCNC3)c3ccccc32)nc1Nc1ccc2[nH]ncc2c1 (centres unmarked) [Example 177, N-(5-fluoro-2-(3-(piperidin-3-yl)indolin-1-yl)pyrimidin-4-yl)-1H-indazol-5-amine] | – | 10.2 | –
21 | – | Fc1cnc(N2CCNC3(CC3)C2)nc1Nc1ccc2[nH]ncc2c1 [Example 153, N-(5-fluoro-2-(4,7-diazaspiro[2.5]octan-7-yl)pyrimidin-4-yl)-1H-indazol-5-amine] | – | 23.8 | IC50 [2, 3]: 556 nM
22 | – | O=c1ccc(-c2ccc(Nc3ccnc(N4CCNCC4)n3)cc2)n[nH]1 [Example 357, 6-(4-((2-(piperazin-1-yl)pyrimidin-4-yl)amino)phenyl)pyridazin-3 (2H)-one] | 6.35 | – | IC50 [2]: 1900 nM
23 | 71.4 | CCC1CN(c2ncc(F)c(Nc3ccc4[nH]ncc4c3)n2)CCN1 (centres unmarked) [Example 149, N-(2-(3-ethylpiperazin-1-yl)-5-fluoropyrimidin-4-yl)-1H-indazol-5-amine] | 49.4 | – | –
24 | 101 | c1cc(-c2cn[nH]c2)ccc1Nc1nc(N2CCCNCC2)nc2c1CSC2 [Example 263, N-(4-(1H-pyrazol-4-yl)phenyl)-2-(1,4-diazepan-1-yl)-5,7-dihydrothieno[3,4-d]pyrimidin-4-amine] | 82 | – | IC50 [1]: 1390 nM
25 | – | Nc1cc(-c2ccc(Nc3ccnc(N4CCNCC4)n3)cc2)ccn1 [Example 359, N-(4-(2-aminopyridin-4-yl)phenyl)-2-(piperazin-1-yl)pyrimidin-4-amine] | 21.8 | – | IC50 [2]: > 10000 nM

Row | SMILES | inhibition at 1 µM [2] [%] | inhibition at 10 µM [1] [%] | inhibition at 1 µM [1] [%] | further results
26 | c1cc(Nc2ccc3[nH]ncc3c2)nc(N2CC3CNC(C3)C2)n1 (centres unmarked) [Example 78, N-(2-(3,6-diazabicyclo[3.2.1]octan-3-yl)pyrimidin-4-yl)-1H-indazol-5-amine] | 99.1 | – | 20.3 | –
27 | c1cc(Nc2ccc3[nH]ncc3c2)nc(N2CCNC3(CC3)C2)n1 [Example 66, N-(2-(4,7-diazaspiro[2.5]octan-7-yl)pyrimidin-4-yl)-1H-indazol-5-amine] | 86.3 | – | 17.5 | IC50 [2, 3]: 380 nM
